Experimental data reported in patent US20160000750A1, “COMBINATION OF EGCG OR METHYLATED EGCG AND A PDE INHIBITOR” (KYUSHU UNIVERSITY, NATIONAL UNIVERSITY CORPORATION, priority 2010, published 2016).

Tests used:
Assay type in all cases: cell-based
[1] = test system: human multiple myeloma cell line, U266; test: Trypan blue cell viability and viable cell count, U266; settings: vardenafil 5 μM, EGCG 5 μM added after 3 hours, 96 hours
Method: (§1) A human multiple myeloma cell line, U266, was subcultured in an RPMI 1640 medium (NISSUI PHARMACEUTICAL Co. LTD., Tokyo) supplemented with 10% fetal calf serum (FCS) (BIOLOGICAL INDUSTRIES) at 37° C. under vapor-saturated 5% CO2 conditions. The cells were cultured in the logarithmic growth phase. A human acute myeloid leukemia cell line, HL60, was subcultured in an RPMI 1640 medium supplemented with 10% fetal calf serum (FCS) at 37° C. under vapor-saturated 5% CO2 conditions. The cells were cultured in the logarithmic growth phase. […]
(§2) The plate was returned to the incubator immediately after the addition of EGCG, followed by culturing for 96 hours. […] After 10 minutes, the number of the cells was counted with a hemocytometer (Becton, Dickinson and Company). Unstained cells were deemed as viable cells, and the cell viability was determined as a ratio of the number of unstained cells in trypan blue staining to the total number of cells. […]

[2] = test system: human acute myeloid leukemia cell line, HL60; test: Trypan blue cell viability and viable cell count, HL60; settings: vardenafil 5 μM, EGCG 5 μM added after 3 hours, 96 hours
Method: as §1, §2

[3] = test system: human multiple myeloma cell line, RPMI8226; test: Trypan blue cell viability and viable cell count, RPMI8226; settings: vardenafil 5 μM, EGCG 5 μM, 96 hours
Method: Enhancement of the activity of EGCG on multiple myeloma cells by vardenafil was investigated. A human multiple myeloma cell line, RPMI8226, was seeded in a 24-well plate at 5×10^4 cells/mL, and vardenafil was added thereto at a final concentration of 5 μM. After 3 hours, EGCG was added thereto at a final concentration of 5 μM. After 96 hours, cell viability (A) and the number (B) of viable cells were measured by trypan blue staining. The value of a control group of cells not treated with EGCG and vardenafil was defined as 100%. The results are shown in FIG. 8 (n=3, Tukey's test, *: P<0.05, ***: P<0.001).

Measured: cell viability (cell-killing activity)

(−)-epigallocatechin-3-O-gallate [EGCG]
any cytotoxicity was not observed: [1] | [2] | [3]
